Data reported in patent US20240301504A1, “MULTIANALYTE BIOMARKERS FOR LUNG CANCER” (The Curators of the University of Missouri, priority 2021, published 2024).

Tested on: H1975 cells
Experiment: Trypan blue exclusion cell death assay in H1975 cells
Format: cell-based
Details: Osimertinib 100 nM, 24 hrs, FIG. 13C
Description: miRNA Transfections and Osimertinib treatments miRNA stock was prepared by suspending in RNAse-free water. Cells were seeded such that they were 70-80% confluent at the time of transfection. Cells were allowed to adhere for 24 hrs and then transfected with 25 nM of miRNA inhibitors against hsa-miR184 (Sigma #HSTUD0282), hsa-miR22-3p (Sigma #HSTUD0393) or 100 nM of hsa-let7b-5p miRNA mimic (Sigma c #HMI0007) using Lipofectamine 3000 (Invitrogen #L3000001). Osimertinib (100 nM) was added an hour after transfection to cells. Cells were allowed to incubate with transfection mix for 24 hrs at 37° C., 5% CO2 and then washed with 1× PBS and trypsinized to be used for cell count and Western blotting.

`C=CC(=O)Nc1cc(Nc2nccc(-c3cn(C)c4ccccc34)n2)c(OC)cc1N(C)CCN(C)C` [Osimertinib] was tested, and the H1975 cell death was “induced”.
